Laboratory results from US6914045B2, “Glycopeptide antibiotics” (Wyeth Holdings Corporation, priority 2001, dated 2005).
Converted amounts (≈) assume the structure as drawn.

Key:
[1] = system: Enterococcus sp.; assay: in vitro antibacterial evaluation, MIC by broth dilution; type: cell-based; conditions: broth dilution, 18 hours at 35° C.
In short: (§1)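 Inoculum 5×10^5 CFU/mL; concentrations 64 to 0.06 μg/mL; MIC defined as lowest inhibitory level. Conducted by broth dilution under NCCLS guidelines.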

[2] = system: Staphylococcus sp.; assay: as above; type: cell-based; conditions: broth dilution, 18 hours at 35° C.
In short: as §1

[3] = system: Escherichia coli; assay: as above; type: cell-based; conditions: 18 hours at 35° C.
In short: as §1

[4] = system: Streptococcus sp.; assay: as above; type: cell-based; conditions: broth dilution, 18 hours at 35° C.
In short: as §1

[5] = system: Staphylococcus aureus-SMITH (GC 4543); assay: acute lethal infection in mice; type: in vivo; conditions: acute lethal infection, female CD-1 mice, intraperitoneal challenge, intravenous 30 min. after infection, 7 day survival
In short: (§2)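 Survival at 7 days, pooled from three independent tests, yields ED50 values. Treatment is intravenous, 30 min after ip infection of female CD-1 mice, using an inoculum lethal to untreated controls within 24-48 hr.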

[6] = system: Enterococcus faecalis (GC 6189); assay: acute lethal infection in mice; type: in vivo; conditions: female CD-1 mice, intraperitoneal challenge, intravenous 30 min. after infection, 7 day survival
In short: as §2

In the case of `Cc1cccc(C2OCC3OC(OC4C(CO)OC(Oc5ccc(CC6NC(=O)C(C(C)c7ccccc7)NC(=O)CNC(=O)C(CO)NC(=O)C(C(O)C7CNC(=N)N7C7OC(CO)C(O)C(O)C7O)NC(=O)C(C(O)C7CNC(=N)N7)NC6=O)cc5)C(O)C4O)C(O)C(O)C3O2)c1` (stereo not drawn) [Example 135, Cyclo[glycyl-β-methylphenylalanyl-O-[4-O-[4,6-O-(3-methylbenzylidene)hexopyranosyl]-hexopyranosyl]tyrosyl-3-(2-iminoimidazolidin-4-yl)seryl-3-(3-hexopyranosyl-2-iminoimidazolidin-4-yl)serylseryl]], the “MIC Enterococcus avium (GC 4558)” value ([1]; Enterococcus avium (GC 4558)) is reported as 2 µg/mL (≈ 1.43 µM), the “MIC Enterococcus faecalis (ATCC 29212)” value ([1]; Enterococcus faecalis (ATCC 29212)) is reported as 2 µg/mL (≈ 1.43 µM) and the “MIC Enterococcus faecalis (GC 2242)” value ([1]; Enterococcus faecalis (GC 2242)) is reported as 2 µg/mL (≈ 1.43 µM). For the same compound, the “MIC Enterococcus faecalis (GC 2691)” value ([1]; Enterococcus faecalis (GC 2691)) was 2 µg/mL (≈ 1.43 µM), the “MIC Enterococcus faecalis (GC 3059)” value ([1]; Enterococcus faecalis (GC 3059)) was 2 µg/mL (≈ 1.43 µM) and the “MIC Enterococcus faecalis (GC 4552)” value ([1]; Enterococcus faecalis (GC 4552)) was 2 µg/mL (≈ 1.43 µM). For the same compound, the “MIC Enterococcus faecalis (GC 4553)” value ([1]; Enterococcus faecalis (GC 4553)) was 2 µg/mL (≈ 1.43 µM), the “MIC Enterococcus faecalis (GC 4554)” value ([1]; Enterococcus faecalis (GC 4554)) was 2 µg/mL (≈ 1.43 µM) and the “MIC Enterococcus faecalis (GC 6189)” value ([1]; Enterococcus faecalis (GC 6189)) was 2 µg/mL (≈ 1.43 µM). For the same compound, the “MIC Enterococcus faecium (GC 2243)” value ([1]; Enterococcus faecium (GC 2243)) was 2 µg/mL (≈ 1.43 µM), the “MIC Enterococcus faecium (GC 4556)” value ([1]; Enterococcus faecium (GC 4556)) was 2 µg/mL (≈ 1.43 µM) and the “MIC Enterococcus faecium (GC 4557)” value ([1]; Enterococcus faecium (GC 4557)) was 2 µg/mL (≈ 1.43 µM). The “MIC Enterococcus faecalis (ATCC 29212)” value ([1]; strain ATCC 29212) was 2 µg/mL (≈ 1.43 µM), the “MIC Enterococcus faecalis (GC 2242)” value ([1]; strain GC 2242) was 2 µg/mL (≈ 1.43 µM) and the “MIC Enterococcus faecium (GC 2243)” value ([1]; strain GC 2243) was 2 µg/mL (≈ 1.43 µM). For the same compound, the “MIC Enterococcus faecalis (GC 2691)” value ([1]; strain GC 2691) was 2 µg/mL (≈ 1.43 µM), the “MIC Enterococcus faecalis (GC 3059)” value ([1]; strain GC 3059) was 2 µg/mL (≈ 1.43 µM) and the “MIC Enterococcus faecalis (GC 4552)” value ([1]; strain GC 4552) was 2 µg/mL (≈ 1.43 µM). For the same compound, the “MIC Enterococcus faecalis (GC 4553)” value ([1]; strain GC 4553) was 2 µg/mL (≈ 1.43 µM), the “MIC Enterococcus faecalis (GC 4554)” value ([1]; strain GC 4554) was 2 µg/mL (≈ 1.43 µM) and the “MIC Enterococcus faecium (GC 4556)” value ([1]; strain GC 4556) was 2 µg/mL (≈ 1.43 µM). The “MIC Enterococcus faecium (GC 4557)” value ([1]; strain GC 4557) was 2 µg/mL (≈ 1.43 µM), the “MIC Enterococcus avium (GC 4558)” value ([1]; strain GC 4558) was 2 µg/mL (≈ 1.43 µM) and the “MIC Enterococcus faecalis (GC 6189)” value ([1]; strain GC 6189) was 2 µg/mL (≈ 1.43 µM). The “MIC Staphylococcus aureus (ATCC 29213)” value [2] was 1 µg/mL (≈ 0.716 µM), the “MIC Staphylococcus aureus (GC 1131)” value [2] was 1 µg/mL (≈ 0.716 µM) and the “MIC Staphylococcus aureus (GC 3051)” value [2] was 1 µg/mL (≈ 0.716 µM). For the same compound, the “MIC Staphylococcus aureus (GC 3053)” value [2] was 1 µg/mL (≈ 0.716 µM), the “MIC Staphylococcus aureus (GC 4541)” value [2] was 1 µg/mL (≈ 0.716 µM) and the “MIC Staphylococcus aureus (GC 4542)” value [2] was 1 µg/mL (≈ 0.716 µM). For the same compound, the “MIC Staphylococcus aureus (GC 4544)” value [2] was 2 µg/mL (≈ 1.43 µM), the “MIC Staphylococcus aureus (GC 4545)” value [2] was 1 µg/mL (≈ 0.716 µM) and the “MIC Staphylococcus aureus (GC 1131)” value ([2]; inoculum 5×10^5 CFU/mL, strain GC 1131) was 1 µg/mL (≈ 0.716 µM). The “MIC Staphylococcus aureus (ATCC 29213)” value ([2]; strain ATCC 29213) was 1 µg/mL (≈ 0.716 µM), the “MIC Staphylococcus aureus (GC 3051)” value ([2]; strain GC 3051) was 1 µg/mL (≈ 0.716 µM) and the “MIC Staphylococcus aureus (GC 3053)” value ([2]; strain GC 3053) was 1 µg/mL (≈ 0.716 µM). The “MIC Staphylococcus aureus (GC 4541)” value ([2]; strain GC 4541) was 1 µg/mL (≈ 0.716 µM), the “MIC Staphylococcus aureus (GC 4542)” value ([2]; strain GC 4542) was 1 µg/mL (≈ 0.716 µM) and the “MIC Staphylococcus aureus-SMITH (GC 4543)” value ([2]; strain GC 4543) was 1 µg/mL (≈ 0.716 µM). The “MIC Staphylococcus aureus (GC 4544)” value ([2]; strain GC 4544) was 2 µg/mL (≈ 1.43 µM), the “MIC Staphylococcus aureus (GC 4545)” value ([2]; strain GC 4545) was 1 µg/mL (≈ 0.716 µM) and the “MIC Staphylococcus haemolyticus (GC 4546)” value ([2]; strain GC 4546) was 0.5 µg/mL (≈ 0.358 µM). The “MIC Coagulase Negative Staphylococcus (GC 4547)” value ([2]; strain GC 4547) was 1 µg/mL (≈ 0.716 µM), the “MIC Coagulase Negative Staphylococcus (GC 4548)” value ([2]; strain GC 4548) was 0.5 µg/mL (≈ 0.358 µM) and the “MIC Coagulase Negative Staphylococcus (GC 4549)” value ([2]; strain GC 4549) was 0.5 µg/mL (≈ 0.358 µM). For the same compound, the “MIC Coagulase Negative Staphylococcus (GC 4551)” value ([2]; strain GC 4551) was 1 µg/mL (≈ 0.716 µM), the “MIC Coagulase Negative Staphylococcus (GC 6257)” value ([2]; strain GC 6257) was 0.5 µg/mL (≈ 0.358 µM) and the “MIC Staphylococcus aureus-SMITH (GC 4543)” value ([2]; strain SMITH GC 4543) was 1 µg/mL (≈ 0.716 µM). The “MIC Escherichia coli (ATCC 25922)” value ([3]; strain ATCC 25922) was 32 µg/mL (≈ 22.9 µM), the “MIC Escherichia coli (GC 4559)” value ([3]; strain GC 4559) was 32 µg/mL (≈ 22.9 µM) and the “MIC Escherichia coli (GC 4560)” value ([3]; strain GC 4560) was 0.5 µg/mL (≈ 0.358 µM). For the same compound, the “MIC Streptococcus agalactiae (GC 4564)” value ([4]; Streptococcus agalactiae (GC 4564)) was 0.25 µg/mL (≈ 0.179 µM), the “MIC Streptococcus pneumoniae (ATCC 6301)” value ([4]; Streptococcus pneumoniae (ATCC 6301)) was under 0.06 µg/mL and the “MIC Streptococcus pneumoniae (GC 1894)” value ([4]; Streptococcus pneumoniae (GC 1894)) was under 0.06 µg/mL. The “MIC Streptococcus pneumoniae (GC 4565)” value ([4]; Streptococcus pneumoniae (GC 4565)) was under 0.06 µg/mL, the “MIC Streptococcus pyogenes (GC 4563)” value ([4]; Streptococcus pyogenes (GC 4563)) was 0.25 µg/mL (≈ 0.179 µM) and the “MIC Streptococcus pneumoniae (ATCC 6301)” value ([4]; strain ATCC 6301) was under 0.06 µg/mL. For the same compound, the “MIC Streptococcus pneumoniae (GC 1894)” value ([4]; strain GC 1894) was under 0.06 µg/mL, the “MIC Streptococcus pyogenes (GC 4563)” value ([4]; strain GC 4563) was 0.25 µg/mL (≈ 0.179 µM) and the “MIC Streptococcus agalactiae (GC 4564)” value ([4]; strain GC 4564) was 0.25 µg/mL (≈ 0.179 µM). For the same compound, the “MIC Streptococcus pneumoniae (GC 4565)” value ([4]; strain GC 4565) was under 0.06 µg/mL, the median effective dose (ED50), Staphylococcus aureus-SMITH (GC 4543) [5] was 0.07 mg/kg and the median effective dose (ED50), Enterococcus faecalis (GC 6189) [6] was 0.26 mg/kg.
